Assays:
[1] = tested on: peripheral blood mononuclear cells; assay: Dynamics of bone marrow cells after AM administration: peripheral blood mononuclear cells and Sca-1-positive cells; type: in vivo, C57BL/6 mice
Method: First, to investigate whether AM has an effect on the dynamics of bone marrow cells, AM or physiological saline was administered randomly to model animals. As the model animals, 48 ten-week old female C57BL/6 mice were used. The transgenic mice (C57BL/6 background) which ubiquitously express green fluorescence protein (GFP) were kindly offered by Professor Masaru Okabe (Osaka University, Japan) (Okabe M, Ikawa M, Kominami K, Nakanishi T, Nishimune Y. ‘Green mice’ as a source of ubiquitous green cells. FEBS Lett 1997; 407: 313-319).
AM (1 μg, 2 μg, or 5 μg in 100 μl physiological saline) was randomly administrated to the C57BL/6 mice (each, n=8) by intraperitoneal injection every day for five days. The control mice were similarly administered with 100 μl physiological saline every day for five days (n=8).
Furthermore, AM or physiological saline was administered to other mice (each, n=8) with a subcutaneous osmotic mini-pump (Alzet, Palo Alto, Calif.) at a delivery rate of 0.05 μg/kg/min for five days. Blood samples were collected on day 5, and mononuclear cells were isolated using Histopaque-1083 (Sigma) by a method known to those skilled in the art (Asahara T, Takahashi T, Masuda H, Kalka C, Chen D, Iwaguro H, Inai Y, Silver M, Isner J M. VEGF contributes to postnatal neovascularization by mobilizing bone marrow-derived endothelial progenitor cells. EMBO J 1999; 18: 3964-3972). The mononuclear cells were counted manually and analyzed with respect to the expression of Sca1-FITC (Sca-1-positive cells: BD Pharmingen, San Diego, Calif.). The immunofluorescence-labeled cells were analyzed by a quantitative flow cytometry using the FACSCalibur Flow Cytometer (BD Biosciences, Mountain View, Calif.). An antibody with the same isotype (BD Pharmingen) was used as a control.

[2] = tested on: bone marrow-derived cells in the elastase-administered lungs; assay: Homing and differentiation of bone marrow cells in elastase-treated GFP-positive bone marrow chimeric mice; type: in vivo, C57BL/6 mice; settings: AM group vs physiological saline group, day 28 after elastase injection
Text: C57BL/6GFP-positive bone marrow chimeric mice were established for evaluating the dynamics of bone marrow cells.
The above-mentioned bone marrow chimeric mice were produced by a method known to those skilled in the art (Sata M, Saiura A, Kunisato A, Tojo A, Okada S, Tokuhisa T, Hirai H, Makuuchi M, Hirata Y, Nagai R. Hematopoietic stem cells differentiate into vascular cells that participate in the pathogenesis of atherosclerosis. Nat Med 2002; 8: 403-409). To put it briefly, a lethal dose of radiation (900 cGy) was applied to wild-type recipient C57BL/6 mice, and bone marrow cells (3×10^6 cells/300 μl) derived from the GFP mouse were transplanted through the tail vein. In order to quantify the reconstitution of mouse bone marrow, mononuclear cells and bone marrow cells in the peripheral blood were analyzed by flow cytometry four weeks after the bone marrow transplant. The percentages of the GFP-positive peripheral blood mononuclear cells and bone marrow cells in the chimeric mice were 87% to 93% and 85% to 90%, respectively, showing that the original stem cell group was replaced by the donor cell group.
Four weeks after the bone marrow transplant, swine pancreatic elastase (200 units/kg; Sigma, St. Louis, Mo.) was injected intratracheally to the chimeric mice. These mice were divided into two groups: the elastase-treated mice to be administered with physiological saline, and those to be administered with AM (each, n=5).
28 days after the injection of elastase (n=5) or saline solution (n=5), frozen sections were prepared from the lungs of the GFP-positive chimeric mice. The number of GFP-positive cells in the alveolar wall was counted and the result was indicated as the number per 100 alveoli. […] The numbers of GFP/cytokeratin double-positive cells and GFP/vWF double-positive cells were counted, and the results were indicated as the number per 100 alveoli. […]

[3] = tested on: elastase-induced pulmonary emphysema; assay: Morphological and functional analyses of elastase-treated mice administered with AM; type: in vivo, C57BL/6 mice; settings: day 28
Method: The remaining 42 mice were used to examine whether AM improves lung structure and lung function in elastase-induced pulmonary emphysema. The mice were intratracheally injected with swine pancreatic elastase (200 units/kg) or physiological saline at random, and assigned to continuous infusion of either AM or physiological saline. Based on this protocol, the following three groups were prepared: the sham treated mice administrated with physiological saline (the sham treated group, n=14), elastase-treated mice administered with physiological saline (the physiological saline group, n=14), and elastase-treated mice administrated with AM (the AM group, n=14). Each of the above-mentioned Examples was carried out according to the guidelines of Animal Management Ethics Committee of the National Cardiovascular Center (Osaka, Japan).
In fact, in the present invention, findings about lung functions (increase in lung volume and static lung compliance) and morphological findings (increase in the average alveolar diameter) confirmed that emphysematous changes were induced in the lungs by intratracheal injection of elastase, and these findings are consistent with the results from previous studies (Hayes J A, Korthy A, Snider G L. The pathology of elastase-induced panacinar emphysema in hamsters. J Pathol 1975; 117: 1-14; Kuraki T, Ishibashi M, Takayama M, Shiraishi M, Yoshida M. A novel oral neutrophil elastase inhibitor (ONO-6818) inhibits human neutrophil elastase-induced emphysema in rats. Am J Respir Crit Care Med 2002; 166: 496-500). 28 days after the injection of elastase or physiological saline, the mice were anesthetized and their static lung compliance was measured using a computer-controlled small animal ventilator (FlexiVent; Scireq, Montreal, PQ, Canada) (n=7). Lungs were excised and then fixed for 24 hours, while the transpulmonary pressure was maintained at 25 cm H2O (n=7). The lung volume was measured by Scherle's method (Scherle W. A simple method for volumetry of organs in quantitative stereology. Mikroskopie 1970; 26: 57-60). The mean linear intercept, a morphometric parameter of pulmonary emphysema, was calculated for 20 randomly selected regions with a light microscope using a method known to those skilled in the art (Thurlbeck W M. Internal surface area and other measurements in emphysema. Thorax 1967; 22: 483-496). Morphological examination was conducted in a blind manner by three observers.
Further, paraffin sections were obtained from the lungs (n=7), and the tissue sections were stained for vWF to examine whether AM induced angiogenesis in the elastase-administered lungs. Three observers counted the number of vWF-positive blood vessels per mm^2 in a blind test manner.

[4] = tested on: bone marrow-derived cells in ischemic cardiac muscle; assay: Dynamic analysis of bone marrow-derived cells in a rat model of myocardial infarction; type: in vivo, GFP chimeric rats; settings: acute myocardial infarction, AM 0.05 μg/kg/min subcutaneously for seven days vs control group
Method: Acute myocardial infarction was produced in GFP chimeric rats (rats expressing GFP in the bone marrow cells) by thoracotomy and then ligation of the anterior descending coronary artery (Fujii T. et al., Am J Physiol Heart Circ Physiol. 288(3): H1444-50, 2005).
After local ischemia is created in the heart by ligation, 0.05 μg/kg/min of AM (the AM group) or 0.9% physiological saline (the control group) was subcutaneously administered for seven days via an osmotic pressure pump.
After acute myocardial infarction was produced, the distributions of bone marrow-derived cells (confirmed by GFP expression), vascular endothelial cells (confirmed by vWF, an endothelial cell marker), and cardiac muscle cells (confirmed by desmin, a cardiac muscle cell marker) in the myocardial infarct area were confirmed. Further, the total sum of the GFP-expressing cell number, vWF-expressing cell number, and desmin-expressing cell number was examined to confirm the states of regeneration of blood vessel and cardiac muscle in the AM group and control group.

[5] = elastase-treated mice, continuous AM infusion

adrenomedullin [AM]
number of the peripheral blood mononuclear cells ([1]; AM 1 μg/animal, intraperitoneal injection every day for five days, day 5): 120 % of the physiological saline group
number of the peripheral blood mononuclear cells ([1]; AM 5 μg/animal, intraperitoneal injection every day for five days, day 5): 140 % of the physiological saline group
number of the peripheral blood mononuclear cells (dose dependence) ([1]; AM 1, 2 or 5 μg intraperitoneal every day for five days, day 5): increased in a dose-dependent manner
number of the peripheral blood mononuclear cells ([1]; continuous AM, subcutaneous osmotic mini-pump 0.05 μg/kg/min for five days, day 5): 131 % of the physiological saline group
frequency of Sca-1-positive cells ([1]; continuous AM, subcutaneous osmotic mini-pump 0.05 μg/kg/min for five days, day 5, flow cytometry): 200 % of the physiological saline group
number of GFP-positive cells incorporated in the lung (alveolar wall, per 100 alveoli) [2]: significantly larger
number of GFP/cytokeratin double-positive cells (per 100 alveoli) [2]: significantly larger
number of GFP/vWF double-positive cells in the alveolar wall [2]: larger
number of vWF-positive lung blood vessels ([3]; elastase-administered lungs, AM vs physiological saline group): significantly increased
histological changes (air space enlargement accompanied by destruction of the alveolar wall) ([3]; elastase-injected mice, continuous AM infusion): decreased
average alveolar diameter (mean linear intercept): increase over the sham treated group [3, 5]: reduced
increase in static lung compliance [3, 5]: significantly reduced
magnitude of the increase in lung volume [3, 5]: reduced
regeneration of cardiac muscles by bone marrow-derived cells (GFP- and desmin-expressing cells) [4]: significantly enhance
revascularization by bone marrow cells (GFP- and vWF-expressing cells) [4]: significantly increase

From patent US20090105171A1, “Methods for Regenerating and Repairing Damaged Tissues Using Adrenomedullin” (priority 2005, published 2009)
